{"source": "patent US20260263517A1", "about": "“THERAPEUTIC METHODS WITH TARGET-LINKED SMALL MOLECULES AND ANTI-TARGET CAR T CELLS” (Seattle Children's Hospital (dba Seattle Children's …, priority 2022, published 2026)", "key": {"[1]": {"experiment": "EC17 dose finding and CRS assessment in tumor-free mice", "format": "in vivo, NSG mice", "text": "For MDA-MB-231 studies, mice received a high dose (~10 million) of a “clinical facsimile” of E2-CAR-T cells (~39% EGFRt+) with a low differentiation profile (FIG. 9). Two days later, 3 different treatment regimens of EC17 were started at an average tumor size of −293±39 mm^3 (FIG. 12). The EC17 dosing was given once-a-week (SIW) at 500 nmol/kg on Mondays, or as escalating doses of 5, 50 or 100, and 500 or 1000 nmol/kg (i.e., 5/50/500 or 5/100/1000) on Monday, Thursday, and Monday with a 6-day break in-between cycles. Control mice were left untreated (received CAR-T cells but no EC17). For comparison, a cohort of tumor-free littermates also received the same number of CAR-T cells without or with EC17 SIW at 500 nmol/kg.\nThe initial EC17 dose finding studies were conducted in MDA-MB-231 tumor bearing mice as shown by the schematic diagram of the experimental layout (FIG. 12, panel A). NSG mice without or with MDA-MB-231 tumors (~211±65 mm3) were engrafted on day 0 with −10 million of a “clinical facsimile” batch of E2-CAR-T cells (−39% EGFRt+, 51:49 CD4/CD8). This batch of CAR-T cells consisted of mostly TSCM and TCM phenotypes (see FIG. 9). Two days after the CAR-T cell injection, one cohort of tumor-bearing mice were left untreated while three cohorts were treated with different regimens of EC17, including single injection per week (SIW) at 500 nmol/kg, or as escalating EC17 dose levels of 5/50/500 (Escalation-1) or 5/100/1000 nmol/kg (Escalation-2) given on a Monday/Thursday/Monday schedule with 1-week drug-free intervals. For comparison, two tumor-free cohorts were either untreated or treated with EC17 SIW at 500 nmol/kg."}, "[2]": {"experiment": "water solubility of EC17", "format": "physicochemical"}, "[3]": {"conditions": "cited from earlier work"}, "[4]": {"system": "THP1-FRβ tumor cells", "experiment": "intravenous THP1-FRβ AML xenograft, E2 CAR-T cells plus EC17 dosing regimens", "format": "in vivo", "protocol": "One objective of this E2-CAR T-cell study was to test EC17/E2 CAR-T cell activity and related toxicity (e.g., sCRS) using multiple dosing regimens starting 3 days after CAR-T infusion. Three different EC17 dosing regimens include (a) once-a-week (SIW) at 500 nmol/kg, (b) “T1W-like” at 5, 50, and 500 nmol/kg on Monday/Wednesday/Friday with 9-day intervals, and (c) “T1W-like” at 5, 100, and 1000 nmol/kg on Monday/Thursday/Monday with 7-day intervals.\nTHP-1-FRβ AML tumor cells were grown in folate-deficient RPMI 1640 with 5-10% FBS at 37° C. in a 5% CO2 humidified atmosphere. THP-1-FRO tumor cells in serum-free folate-deficient RPMI1640 medium were i.v. injected at 5×10^6 cells per animal.\nAnti-FITC E2 scFv-CAR T cells were frozen in a T-cell freezing medium. Upon arrival, vials of frozen CAR-T cells were immediately stored at −80° C. The CAR-T cells were quickly thawed at 37° C., washed twice with CAR-T cell culture medium, and used for animal injection at 6 million viable EGFRt+E2 CAR-T cells (CD4/CD8 at ~1:1) per animal. A small aliquot was taken on the day infusion for flow cytometric analysis of E2-CAR T-cell phenotypes.\nEC17 and bis-EDA-FITC dosing solutions were prepared when dosing began by weighing appropriate amounts of each compound, reconstituting in PBS, pH 7.4, sterile filtering the drug solution through a 0.22 pm PVDF syringe filter, and freezing aliquots for each day of dosing at −20° C.\nAll EC17 doses were given towards the end of day (3-4 PM) to allow potential CRS (cytokine release syndrome) to develop overnight. In the following morning, animals were scored according to a CRS grading system (see below).\nDaily body weight measurement on the days after EC17 dose is required. Attention was given to gross animal morphology and behavior. Euthanasia was performed if mice lose a lot of weight in a short duration or when mice are approaching moribund conditions per CRS grading system or neurotoxicity.\nTumor growth, body weight, and overall assessment: Body weight measured 2-3 times/week. On the days immediately after any EC17 dose, body weight measurement was taken daily, and attentions were given to gross animal morphology and behavior.\nWhole blood cell analysis: Plasma was removed from predetermined volumes of whole EDTA treated blood and RBCs were lysed with RBC lysis solution. The leukocyte pellets were then resuspended in flow cytometry staining solution (1% bovine serum albumin, 50 mg/mL human IgG (Equitech Bio, cat #SLH56-0001), 0.9% sodium azide in a phosphate buffered saline, pH=7.4) and leukocyte surface marker staining was performed using the following antibodies: anti-human CD45 (clone HI30, eBioscience #47-0459-42 at 1:20 (v/v) dilution), anti-human CD137 (clone 4B4-1, BD Bioscience #564092 at 1:20 (v/v) dilution), anti-human CD8α [clone RPA-T8, BD Bioscience, catalog #557746 at 1:20 (v/v) dilution], anti-human CD4 [clone SK3, eBioscience catalog #46-0047-42 at 1:20 (v/v) dilution], anti-human EGFR [R&D systems, clone Hu1, catalog #FAB9577B @1:10(n/n)], anti-human PD1 [BD Biosciences, clone EH12.1, catalog #562511 @1:20 (v/v)], anti-human LAG3 [BD Biosciences, clone T47-530, catalog #565616 @1:20 (v/v)], anti-human TIM3 [BD Biosciences, clone 7D3, catalog #565558 @1:20 (v/v)], anti-human CD3ε [BD Biosciences, clone SK7, catalog #557832 @1:20 (v/v)]. After leukocyte staining, cells were washed with PBS and resuspended in cold PBS containing 53,000 CountBright™ beads [Invitrogen catalog #C36950] and transferred to flow cytometry collection tubes. Flow cytometry data was collected on the Gallios flow cytometer (Beckman Coulter, Brea, CA). Determination of the concentration of CAR T cells in each blood sample was calculated according to Invitrogen's instructions. CAR T cells were identified as human CD3ε+EGFRt+ events and easily distinguished and counted using the Kaluza™ flow cytometry software. […]"}, "[5]": {"conditions": "6 million CAR-T + EC17 SIW 500 nmol/kg (Cohort 3)"}}, "note": "“Also recorded” adds a separate entry of the source.", "data": [{"smiles": "NC1=NC2N=CC(CNc3ccc(C(=O)N[C@@H](CCC(=O)NCCNC(=S)Nc4ccc(-c5c6ccc(=O)cc-6oc6cc(O)ccc56)c(C(=O)O)c4)C(=O)O)cc3)=NC2C(=O)N1", "note": "(stereo partly drawn) [EC17, FA-(γ)-ethylenediamine-FITC]", "values": [{"measurement": "CAR-T cell expansion by flow cytometry", "setting": "[1]; tumor-free cohorts", "value": "no CAR-T cell expansion was detected"}, {"measurement": "body weight loss", "setting": "[1]; tumor-free mice, CAR-T cells + two weekly doses of EC17 at 500 nmol/kg", "value": "no CRS symptoms (grade 0 out of a 0-5 scale) or body weight loss"}, {"measurement": "IFNγ in plasma", "setting": "[1]; tumor-free, CAR-T cells plus EC17, days 11 and 12", "value": "low levels of IFNγ were detected"}, {"measurement": "water solubility", "setting": "[2]", "value": "good water solubility"}, {"measurement": "clearance from circulation", "setting": "[3]; 0.1 mg/kg intravenous", "value": "rapid clearance from circulation"}, {"measurement": "time EC17 fluorescence signal observed at the site of the tumor", "setting": "[3]; after administration, latest time-point evaluated", "value": "up to 5 hours"}, {"measurement": "time to real-time visualization of malignant lesions", "setting": "[3]; post EC17 administration", "value": "≤ 2", "unit": "h"}, {"measurement": "elimination half-life", "setting": "[3]; single 10-minute intravenous infusion of 0.1 mg/kg, plasma", "value": 1.45, "unit": "h"}, {"measurement": "body weight loss", "setting": "[4]; 6 million CAR-T + EC17 M/Th/M dose escalation (Cohort 5)", "value": "little body weight loss during the first two cycles; also recorded: very mild body weight loss"}, {"measurement": "CRS grade", "setting": "[4]; [5]", "value": "1-2"}, {"measurement": "body weight loss", "setting": "[4]; [5]", "value": "EC17 dose-dependent body weight loss after each EC17 dose; also recorded: some body weight loss"}, {"measurement": "body weight loss", "setting": "[4]; 6 million CAR-T + EC17 TIW 5/50/500 nmol/kg on/off (Cohort 4)", "value": "mildest body weight loss among three treatment groups; also recorded: least body weight loss"}, {"measurement": "circulating THP1-FRβ (GFP+) tumor cells in blood", "setting": "[4]; E2 CAR T cells + EC17, all three dosing regimens, end of study", "value": "significant reduction in circulating THP1 cell burden; also recorded: effectively reduced circulating THP11-FRβ tumor cells in the blood"}, {"measurement": "non-liver macrometastases", "setting": "[4]; EC17 M/Th/M dose escalation at a slow pace per cycle", "value": "failed to control the non-liver macrometastases"}, {"measurement": "non-liver macrometastases", "setting": "[4]; EC17 SIW 500 nmol/kg", "value": "successfully controlled non-liver macrometastases"}, {"measurement": "non-liver macrometastases", "setting": "[4]; EC17 TIW 5/50/500 nmol/kg on/off", "value": "successfully controlled non-liver macrometastases"}, {"measurement": "liver and non-liver (overall) tumor burden", "setting": "[4]; EC17 TIW 5/50/500 nmol/kg on/off (Cohort 4), Day 39", "value": "best anti-tumor activity among the three different EC17 dose schedules; also recorded: trended to be the best regimen"}, {"measurement": "co-expression of PD1, LAG3, TIM3 on CAR T cells from liver tumors", "setting": "[4]; EC17 TIW (cohort 4)", "value": "fewest number of double and triple positive events"}, {"measurement": "CAR T exhaustion", "setting": "[4]; all three EC17 dosing regimens", "value": "very little induction of CAR T exhaustion"}, {"measurement": "severe CRS (grades≥3)", "setting": "[4]; any EC17 treated cohort", "value": "no severe CRS (i.e., grades≥3) was observed"}, {"measurement": "circulating CAR-T cells in blood", "setting": "[4]; satellite animals, day 31, all EC17 treated cohorts", "value": "EC17-dependent CAR-T cell expansion and persistence in all treated cohorts"}]}]}
